The source of these data is patent publication US6906059B2, “Pharmaceutical composition with protective action against oxidative/toxic substances, especially cardiotoxic substances” (Solvay Pharmaceuticals, priority 1999, dated 2005).

Structures are written as SMILES.

Data set [1] has as its system rats with adriamycin-induced cardiomyopathy. Briefly: Inhibition of the pro-oxidative action of adriamycin in rats (plasma α-tocopherol, lipid peroxides, ferroxidase activity). The format is in vivo, male Wistar rats. Particulars: for Lipid peroxides (measured as malonic dialdehyde thiobarbituric acid adducts) in plasma / α-Tocopherol (Vitamin E) in plasma / Ferroxidase activity in plasma: X ± SEM. Here is the method:
The left-ventricular myocardial hydroxyproline concentration, which is a measurement of cardiac fibrous tissue growth, was less in the animals treated with test substance (group 3) than in the control animals treated with adriamycin (group 2). […] If the test substance was also administered in addition to adriamycin (group 3), the adriamycin-induced increase in the hydroxyproline content could be reduced by about 13% compared with animals treated with placebo (group 2). […] The animals were divided into 4 groups:
1. untreated animals (=control animals, n=19);
2. animals treated with adriamycin (+placebo instead of test substance, n=14);
3. animals treated with test substance (n=11);
4. animals treated with adriamycin and test substance (n=14).
The test substance used was (3S,2R′)-3-{1-[2′-(ethoxycarbonyl)-4′-phenyl-butyl]-cyclopentane-1-carbonylamino}-2,3,4,5-tetrahydro-2-oxo-1H-1-benzazepin-1-acetic acid, being representative of the substances of Formula I usable according to the invention.
The animals of groups 2 and 4 were administered 15 mg/kg adriamycin intraperitoneally over a period of two weeks. The animals of group 4 were administered 30 mg/kg of the test substance daily for two weeks with their food, starting with the first day of adriamycin treatment. The animals of group 3 were likewise administered 30 mg/kg of the test substance daily for two weeks with their food (but without adriamycin).
Once the two-weeks' treatment had ended, the animals were anaesthetised with pentobarbital (50 mg/kg i.p.) and venous blood samples were taken, from which plasma was obtained. The concentration of lipid-peroxides and the ferroxidase activity in the plasma was measured using the methods of Wong, S. H. Y. et al., Clin. Chem. 33, 214-220, 1987 or Johnson, D. A. et al., Clin. Chem. 13, 142-150, 1967. Furthermore, the α-tocopherol concentration in the plasma was measured using the method of Catignani, G. L. and Bieri, J. G., Clin. Chem. 29, 708-712, 1983.

Data set [2] concerns rabbits with adriamycin-induced cardiomyopathy. The data set can be described thus: Reduction of adriamycin-induced cardiac remodelling processes in the rabbit heart (heart/body weight ratio, hydroxyproline content). Particulars: for Ratio of heart weights to body weight: X ± SEM, n = 8. It is filed as in vivo. Here is the method:
• A) The tests were carried out on rabbits of both sexes having an initial body weight of 2.1±0.2 kg. The animals were divided into 3 groups:
1. untreated animals (=control animals, n=20);
2. animals treated with adriamycin (+placebo instead of test substance, n=8);
3. animals treated with adriamycin and test substance (n=8). • The test substance used was (3S,2R′)-3-{1-[2′-(ethoxycarbonyl)-4′-phenyl-butyl]-cyclopentane-1-carbonylamino}-2,3,4,5-tetrahydro-2-oxo-1H-1-benzazepin-1-acetic acid, which is representative of the substances of Formula I usable according to the invention.
Groups 2 and 3 were administered 1 mg/kg adriamycin i.v. twice a week for 4 weeks. Group 3 of rabbits having adriamycin-induced cardiomyopathy was administered a daily oral dose of the test substance (30 mg/kg body weight) for 4 weeks, starting on the first day of adriamycin treatment, with their food. Once the 4 weeks had ended, the hearts were isolated and weighed. Then they were fixed with formalin for later biochemical investigations (hydroxyproline content of the heart tissue, measured with the HPLC amino acid analysis after Blankenship, D. T. et al., Aunal. Biochem. 178, 227-232, 1989 and Schuster, R., J. Chromatogr. 431, 271 -284, 1989). Both the increase in heart weight in relation to body weight and the hydroxyproline content in the heart tissue compared with normal values are indicators of remodelling processes taking place in the heart.

Where [3] appears, read: Group 2: adriamycin 15 mg/kg i.p. over two weeks + placebo, n = 14.
[4] abbreviates: group 2 (adriamycin) v. group 1 (control).
The mark [5] stands for this setting: group 2 (adriamycin) v. group 1 (untreated).
Where [6] appears, read: Group 3: test substance 30 mg/kg daily with food for two weeks, no adriamycin, n = 11.
Setting [7] is: Group 4: adriamycin 15 mg/kg i.p. + test substance 30 mg/kg daily, two weeks, n = 14.
Setting [8] is: adriamycin + test substance v. adriamycin + placebo.
Setting [9] is: group 4 v. group 2 (adriamycin + placebo).
Where [10] appears, read: test substance alone v. untreated.
The mark [11] stands for this setting: adriamycin + test substance 30 mg/kg daily oral v. adriamycin + placebo, 4 weeks.

As for `COc1cccc2c1C(=O)c1c(O)c3c(c(O)c1C2=O)C[C@@](O)(C(=O)CO)C[C@@H]3O[C@H]1C[C@H](N)[C@H](O)[C@H](C)O1` [adriamycin, reference compound], in data set [1] (setting [3]), the “Lipid peroxides (measured as malonic dialdehyde thiobarbituric acid adducts) in plasma” value (“Lipid peroxides … in plasma” below) came out at 4.476 ± 0.404 µmol/L and the “α-Tocopherol (Vitamin E) in plasma” value was 338.2 ± 28.0 µg/dL. Besides, in data set [1] (setting [4]), the “Increase of concentration of lipid peroxides in the rat plasma” value is “about 131%” and the “Increase of total activity of the ferroxidase in the rat plasma” value is reported as “about 22%”. For the same compound, the Ratio of heart weights to body weight in data set [2] (Group 2: adriamycin 1 mg/kg i.v. twice a week for 4 weeks + placebo) amounted to 3.39 ± 0.13 g/kg. Also, in data set [2] (setting [5]), the “Increase of heart/body weight ratio compared with untreated control group” value was “about 69%” and the “Increase of myocardial hydroxyproline content compared with untreated control group” value is “about 60%”.
Regarding `CCOC(=O)[C@H](CCc1ccccc1)CC1(C(=O)N[C@H]2CCc3ccccc3N(CC(=O)O)C2=O)CCCC1` [test substance, (3S,2R′)-3-{1-[2′-(ethoxycarbonyl)-4′-phenyl-butyl]-cyclopentane-1-carbonylamino}-2,3,4,5-tetrahydro-2-oxo-1H-1-benzazepin-1-acetic acid], in data set [1] (setting [6]), the “Ferroxidase activity in plasma” value is given as 0.2545 ± 0.0104 IU/l, the “Lipid peroxides … in plasma” value amounted to 2.319 ± 0.086 µmol/L and the “α-Tocopherol (Vitamin E) in plasma” value turned out to be 657.8 ± 21.0 µg/dL. In addition, in data set [1] (setting [7]), the “Ferroxidase activity in plasma” value was 0.2534 ± 0.0128^+ IU/l, the “Lipid peroxides … in plasma” value is given as 3.030 ± 0.235^+++ μmol/l and the “α-Tocopherol (Vitamin E) in plasma” value worked out at 407.9 ± 33.0 µg/dL. In data set [1] (setting [8]), the “% Effect of the test substance on plasma ferroxidase activity, Group 4 v. 2” value was −23.0%; the “% Effect of the test substance on plasma lipid peroxides, Group 4 v. 2” value is recorded as −32.3%; the “% Effect of the test substance on plasma α-tocopherol, Group 4 v. 2” value is listed as “+20.6%”. In addition, in data set [1] (group 3 (test substance) v. group 1 (control)), the “Increase of α-tocopherol content in the plasma” value is “about 95%”. For the same compound, the “Increase of α-tocopherol content in the plasma” value in data set [1] (group 4 (adriamycin + test substance) v. group 2 (adriamycin + placebo)) was “about 21%”. Further, in data set [1] (setting [9]), the “Decrease of ferroxidase activity” value was found to be 23% and the “Reduction of the adriamycin-induced increase in the concentration of lipid peroxides in the plasma” value was “about 32%”. Further, in data set [1] (setting [10]), the “% Effect of the test substance on plasma ferroxidase activity, Group 3 v. 1” value is listed as −5.7%; the “% Effect of the test substance on plasma lipid peroxides, Group 3 v. 1” value is reported as “+19.6%”; the “% Effect of the test substance on plasma α-tocopherol, Group 3 v. 1” value is recorded as “+95.2%”. For the same compound, the Ratio of heart weights to body weight in data set [2] (Group 3: adriamycin 1 mg/kg i.v. twice a week + test substance 30 mg/kg daily oral, 4 weeks) turned out to be 2.79 ± 0.08 g/kg. In data set [2] (setting [11]), the “% Effect of the test substance (group 3 v. 2) on hydroxyproline content of the heart” value is given as −13.3% and the “% Effect of the test substance (group 3 v. 2) on ratio of heart weights to body weight” value is recorded as −17.7%. In data set [2] (group 3 v. group 2 (placebo)), the “Reduction of the adriamycin-induced increase in the heart/body weight ratio” value is “about 18%” and the “Reduction of the adriamycin-induced increase in the hydroxyproline content” value is recorded as “about 13%”.
